According to US20160095867A1, “BET INHIBITION THERAPY FOR HEART DISEASE” (DANA-FARBER CANCER INSTITUTE, INC., priority 2013, published 2016):

What was measured:
mice subject to TAC = experiment: TAC model with pre-established pathology, JQ1 begun day 18 post-TAC; assay type: in vivo, mouse
Excerpt: Adult mice were subjected to pressure overload using transverse aortic constriction (TAC). JQ1 or vehicle was begun on day 18 post-TAC, a time point when significant pathology has already developed (FIG. 11). […] (N=6-12 per group). […] For example, patients typically present with pre-existing or established cardiac hypertrophy and/or heart failure.

mice with PE infusion = experiment: Chronic phenylephrine (PE) infusion model of cardiac hypertrophy; assay type: in vivo, mouse; conditions: PE 75 mg/kg/day minipump, JQ1 from 1.5 days after installation
Excerpt: All mice were C57Bl/6J littermate males aged 10-12 weeks. For TAC, mice were anesthetized with ketamine/xylazine, mechanically ventilated (Harvard apparatus), and subject to thoracotomy. The aortic arch was constricted between the left and right carotid arteries using a 7.0 silk suture and a 27-gauge needle as previously described (Hu et al., 2003). In our hands, this protocol a consistent peak pressure gradient of approximately 50 mmHg across the constricted portion of the aorta. For PE infusion, mice were anesthetized using continuous 1% inhalational isofluorane. Mini-osmotic pumps (Alzet 2004, Durect Corp.) were filled with phenylephrine hydrochloride (PE, Sigma) or vehicle (normal saline) and implanted subcutaneously on the dorsal aspect of the mouse. PE was infused at a dose of 75 mg/kg/day for 17 days. Injections of JQ1 or vehicle were begun 1.5 days postoperatively.
For transthoracic echocardiography, mice were anesthetized with 1% inhalational isofluorane and imaged using the Vevo 770 High Resolution Imaging System (Visual Sonics, Inc.) and the RMV-707B 30 MHz probe. Measurements were obtained from M-mode sampling and integrated EKV images taken in the LV short axis at the mid-papillary level (Haldar et al., 2010). […] Conscious tail-vein systolic blood pressure was measured using the BP2000 Blood Pressure Analysis System (Visitech Systems, Inc.) as recommended by the manufacturer. […]

[1] = adult mice, 50 mg/kg/day; cited from earlier work
[2] = system: primary Rat Aortic Smooth Muscle Cells (RASMC); experiment: PDGF-bb induced pathologic smooth muscle cell activation; assay type: cell-based; conditions: JQ1 500 nM, PDGF-bb 10 ng/mL
Experimental: All experiments were performed with primary Rat Aortic Smooth Muscle Cells (RASMC), PDGF-bb (10 ng/mL), and JQ1 (500 nM). JQ1 blocks hallmark features of pathologic smooth muscle activation in response to the agonist PDGF-bb such as (FIG. 14A) proliferation (quantified by radiolabeled thymidine incorporation), (FIG. 14B) migration (quantified using a Transwell migration assay), and (FIG. 14C) pathologic gene induction (qRT-PCR shown for Ptgs2/Cox2). These findings support the efficacy of BET bromodomain inhibition against pathologic smooth muscle growth (n=3-6 per group; *p<0.05 vs. vehicle; **p<0.05 vs. PDGF-bb).

[3] = system: Neonatal rat ventricular cardiomyocytes (NRVM); experiment: Doxorubicin mediated apoptosis in cultured cardiomyocytes (TUNEL); assay type: cell-based; conditions: JQ1 250 nM 3 hours, then Doxo 1 μM 24 hours
Experimental: Doxorubicin (Doxo) is an anthracycline compound commonly used as cytotoxic chemotherapy for cancer. Doxo causes dose-dependent toxicity to cardiomyocytes and can cause cardiac enlargement, fibrosis and heart failure in patients. Cardiotoxicity is dose-limiting for anthracyclines such as Doxorubicin and Daunorubicin. […] Neonatal rat ventricular cardiomyocytes (NRVM) were treated with or without JQ1 (250 nM) for 3 hours, followed by treatment±Doxo (1 μM) for another 24 hours. Cells were assayed for apoptosis by TUNEL staining and nuclei were counterstained with DAPI.

## Cc1sc2c(c1C)C(c1ccc(Cl)cc1)=N[C@@H](CC(=O)OC(C)(C)C)c1nnc(C)n1-2 [JQ1]
Mice subject to TAC
  progression of LV cavity dilation: significantly attenuates
  progression of LV systolic dysfunction: significantly attenuates
  progression of LV wall thickening: significantly attenuates
  progression of cardiomegaly: significantly attenuates
Mice with PE infusion
  LV systolic function during chronic PE infusion: without any compromise
  development of pathologic cardiac hypertrophy during chronic PE infusion: potently suppressed
[1]
  toxicity on chronic administration: without significant toxicity
[2]
  PDGF-bb induced migration (Transwell migration assay): blocks
  PDGF-bb induced pathologic gene induction (qRT-PCR, Ptgs2/Cox2): blocks
  PDGF-bb induced proliferation (radiolabeled thymidine incorporation): blocks
[3]
  Doxo induced cardiotoxicity (apoptosis, TUNEL positive nuclei): blocks
